The text below walks through data of ChEMBL document CHEMBL5625238, “Lead generation from N-[benzyl(4-phenylbutyl)carbamoyl]amino acid as a novel LPA1 antagonist for the treatment of systemic sclerosis” (Eur J Med Chem, 2023).

Data set [1] concerns the target Lysophosphatidic acid receptor 1 (Homo sapiens, UniProt Q92633). The data set can be described thus: Antagonist activity at human LPA1 receptor stably expressed in rat RH7777 cells assessed as reduction in LPA-induced intracellular Ca2+ concentration preincubated for 30 mins followed by LPA addition measured by Fluo-4 probe based fluorescence assay.
Data set [2] has as its target Lysophosphatidic acid receptor 1 (Mus musculus) (UniProt P61793). Description: In vivo antagonist activity at LPA1 receptor in C57BL/6J mouse assessed as inhibition of LPA-induced histamine release from mast cells at 10 mg/kg, po administered via gavage and measured after 1 hr by enzyme immunoassay relative to control. In kind it is functional, organism-based.
For data set [3] the target is unchanged. The data set can be described thus: In vivo antagonist activity at LPA1 receptor in C57BL/6J mouse assessed as inhibition of LPA-induced histamine release from mast cells at 10 mg/kg, po administered via gavage and measured after 4 hrs by enzyme immunoassay relative to control. In kind it is functional, organism-based.
The target is the same in data set [4]. Description: In vivo antagonist activity at LPA1 receptor in C57BL/6J mouse assessed as inhibition of LPA-induced histamine release from mast cells at 10 mg/kg, po administered via gavage and measured after 8 hrs by enzyme immunoassay relative to control. In kind it is functional, organism-based.
Data set [5] has the same target. Description: In vivo antagonist activity at LPA1 receptor in C57BL/6J mouse assessed as inhibition of LPA-induced histamine release from mast cells at 30 mg/kg, po administered via gavage and measured after 1 hr by enzyme immunoassay relative to control. In kind it is functional, organism-based.
The target is the same in data set [6]. The data set can be described thus: In vivo antagonist activity at LPA1 receptor in C57BL/6J mouse assessed as inhibition of LPA-induced histamine release from mast cells at 30 mg/kg, po administered via gavage and measured after 4 hrs by enzyme immunoassay relative to control. In kind it is functional, organism-based.
Data set [7] has the same target. Description: In vivo antagonist activity at LPA1 receptor in C57BL/6J mouse assessed as inhibition of LPA-induced histamine release from mast cells at 30 mg/kg, po administered via gavage and measured after 8 hrs by enzyme immunoassay relative to control. In kind it is functional, organism-based.
For data set [8] the target is unchanged. Description: In vivo antagonist activity at LPA1 receptor in C57BL/6J mouse assessed as inhibition of LPA-induced histamine release from mast cells at 100 mg/kg, po administered via gavage and measured after 1 hr by enzyme immunoassay relative to control. In kind it is functional, organism-based.
The target is the same in data set [9]. Description: In vivo antagonist activity at LPA1 receptor in C57BL/6J mouse assessed as inhibition of LPA-induced histamine release from mast cells at 100 mg/kg, po administered via gavage and measured after 4 hrs by enzyme immunoassay relative to control. In kind it is functional, organism-based.
For data set [10] the target is unchanged. The data set can be described thus: In vivo antagonist activity at LPA1 receptor in C57BL/6J mouse assessed as inhibition of LPA-induced histamine release from mast cells at 100 mg/kg, po administered via gavage and measured after 8 hrs by enzyme immunoassay relative to control. In kind it is functional, organism-based.
Data set [11] can be described thus: Plasma concentration in LPA-induced C57BL/6J mouse at 10 mg/kg, po administered via gavage and measured after 1 hr by LC-MS/MS analysis. In kind it is ADME, organism-based.
Data set [12] is described as follows: Plasma concentration in LPA-induced C57BL/6J mouse at 10 mg/kg, po administered via gavage and measured after 4 hrs by LC-MS/MS analysis. In kind it is ADME, organism-based.
Data set [13] can be described thus: Plasma concentration in LPA-induced C57BL/6J mouse at 10 mg/kg, po administered via gavage and measured after 8 hrs by LC-MS/MS analysis. In kind it is ADME, organism-based.
The nature of data set [14]: Plasma concentration in LPA-induced C57BL/6J mouse at 30 mg/kg, po administered via gavage and measured after 1 hr by LC-MS/MS analysis. In kind it is ADME, organism-based.
Data set [15] is described as follows: Plasma concentration in LPA-induced C57BL/6J mouse at 30 mg/kg, po administered via gavage and measured after 4 hrs by LC-MS/MS analysis. In kind it is ADME, organism-based.
A short description of data set [16]: Plasma concentration in LPA-induced C57BL/6J mouse at 30 mg/kg, po administered via gavage and measured after 8 hrs by LC-MS/MS analysis. In kind it is ADME, organism-based.
Data set [17] in a line: Plasma concentration in LPA-induced C57BL/6J mouse at 100 mg/kg, po administered via gavage and measured after 1 hr by LC-MS/MS analysis. In kind it is ADME, organism-based.
Data set [18] in a line: Plasma concentration in LPA-induced C57BL/6J mouse at 100 mg/kg, po administered via gavage and measured after 4 hrs by LC-MS/MS analysis. In kind it is ADME, organism-based.
The nature of data set [19]: Plasma concentration in LPA-induced C57BL/6J mouse at 100 mg/kg, po administered via gavage and measured after 8 hrs by LC-MS/MS analysis. In kind it is ADME, organism-based.
Data set [20] relates to Mus musculus. The data set can be described thus: Anti-fibrotic activity in po dosed C57BL/6 mouse model of bleomycin-induced skin fibrosis assessed as inhibition of collagen production by measuring reduction in hydroxyproline content administered twice daily via gavage for 28 days measured post last dose. In kind it is functional, organism-based. Particulars: dose 10-100 mg/kg, time 28.0 day.

The subject of data set [21] is Mus musculus. The data set can be described thus: Anti-hypertrophic activity in po dosed C57BL/6 mouse model of bleomycin-induced skin fibrosis assessed as reduction in skin thickness administered twice daily via gavage for 28 days measured post last dose by caliper method. In kind it is functional, organism-based. Particulars: dose 10-100 mg/kg, time 28.0 day.
Data set [22] is filed under the species Mus musculus. Description: animal or person. The settings on record: C57BL/6, po, 672 h, read-out: INH.
Description: Anti-fibrotic activity in C57BL/6 mouse model of bleomycin-induced skin fibrosis assessed as inhibition of collagen production by measuring reduction in hydroxyproline content at 10 mg/kg, po administered twice daily via gavage for 28 days measured post last dose relative to control
Data set [23] is filed under the species Mus musculus. Description: animal or person. The settings on record: C57BL/6, po, 672 h, read-out: INH. This is another data set of the same source.
Description: Anti-fibrotic activity in C57BL/6 mouse model of bleomycin-induced skin fibrosis assessed as inhibition of collagen production by measuring reduction in hydroxyproline content at 30 mg/kg, po administered twice daily via gavage for 28 days measured post last dose relative to control
The species entered for data set [24] is Mus musculus. Description: animal or person. The settings on record: C57BL/6, po, 672 h, read-out: INH. The source holds these as a separate data set.
Description: Anti-fibrotic activity in C57BL/6 mouse model of bleomycin-induced skin fibrosis assessed as inhibition of collagen production by measuring reduction in hydroxyproline content at 100 mg/kg, po administered twice daily via gavage for 28 days measured post last dose relative to control
Data set [25] is filed under the species Mus musculus. The data set can be described thus: animal or person. Particulars: C57BL/6, po, 672 h, read-out: INH. The source holds these as a separate data set.
Description: Anti-fibrotic activity in C57BL/6 mouse model of bleomycin-induced skin fibrosis assessed as inhibition of collagen production by measuring reduction in hydroxyproline content at 2 mg/kg, po administered once daily via gavage for 28 days measured post last dose relative to control

pIC50: −log10 of the molar value.

Lysophosphatidic acid receptor 1 (Mus musculus), sequence (P61793 whole entry): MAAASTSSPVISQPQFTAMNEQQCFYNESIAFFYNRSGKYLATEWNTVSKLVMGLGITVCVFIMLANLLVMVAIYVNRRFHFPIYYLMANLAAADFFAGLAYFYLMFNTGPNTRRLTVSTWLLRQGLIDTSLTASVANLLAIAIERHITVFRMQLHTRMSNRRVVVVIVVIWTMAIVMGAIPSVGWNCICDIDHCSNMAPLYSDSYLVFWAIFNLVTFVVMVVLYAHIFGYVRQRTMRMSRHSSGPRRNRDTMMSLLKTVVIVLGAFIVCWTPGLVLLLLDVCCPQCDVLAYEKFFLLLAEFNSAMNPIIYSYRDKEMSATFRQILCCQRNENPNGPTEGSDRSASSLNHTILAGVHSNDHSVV
Lysophosphatidic acid receptor 1, sequence (Q92633 whole entry): as the sequence (P61793 whole entry) above, with A4I, S8I, Q22P, Y40H, V61I, D193E, H194N, V269I, N331S, N335T counted along it

Regarding `COc1cc(CN(CCCCc2ccccc2)C(=O)NC2(C(=O)O)CC2)cc(OC)c1C`, in data set [1], the pIC50 (usually the IC50 on a negative log10 scale, so that one unit is a factor of ten) was 5.56.

For `COc1cc([C@@H](C)N(CCCCc2ccccc2)C(=O)NC2(C(=O)O)CC(F)(F)C2)cc(OC)c1C`, the inhibition (as a rule, the relative decrease from the control value, in per cent) came to 58% in [2]; 36% in data set [3]; 2% in data set [4]; 94% in data set [5]; 66% in [6]; 44% in data set [7]. Also, the inhibition in data set [8] was 95%; in data set [9], 94%; in data set [10], 77%; in the data set with Mus musculus [20], “Dose-Dependent Effect”. In addition, the concentration at 1 h was 892 ng/mL in data set [11], 4240 ng/mL in data set [14] and 12100 ng/mL in data set [17]. The results for the concentration at 4 h in [12], in data set [15] and in [18] were 252 ng/mL, 805 ng/mL and 7160 ng/mL, respectively. The concentration at 8 h in data set [13] is 175 ng/mL; in data set [16], 596 ng/mL; in data set [19] it was 2460 ng/mL. Further, in the data set on Mus musculus [21], the Activity entry was “Dose-Dependent Effect”. Besides, in the data set listed under Mus musculus [22], the inhibition in vivo at 10 mg/kg was 22%. Further, in the data set filed under Mus musculus [23], the inhibition in vivo at 30 mg/kg is 49%. Besides, the inhibition in vivo at 100 mg/kg in the data set listed under Mus musculus [24] is 77%.

As to `C[C@]12C=CC(=O)C=C1CC[C@@H]1[C@@H]2C(=O)C[C@@]2(C)[C@H]1CC[C@]2(O)C(=O)CO` [PREDNISONE], the inhibition in vivo at 2 mg/kg in the data set listed under Mus musculus [25] worked out at 63%.

In the case of `COc1cc([C@H](C)N(CCCCc2ccccc2)C(=O)NC2(C(=O)O)CC(F)(F)C2)cc(OC)c1C`, the pIC50 in data set [1] is 6.33.

As for `COc1cc(CN(CCCCc2ccccc2)C(=O)NC2(C(=O)O)CCCC2)cc(OC)c1C`, the pIC50 in data set [1] was 5.75.

As for `COc1cc([C@@H](C)N(CCCc2ccccc2)C(=O)NC2(C(=O)O)CC(F)(F)C2)cc(OC)c1C`, in data set [1], the pIC50 was 7.29.

With `COc1cc(CN(CCCCc2ccccc2)C(=O)NC2(C(=O)O)CCCCC2)cc(OC)c1C`, in data set [1], the pIC50 was 5.67.

Consider `COc1cc(CN(CCCCc2ccccc2)C(=O)N[C@H](CC(C)C)C(=O)O)cc(OC)c1C`, for which the pIC50 in data set [1] was 5.44.

`COc1cc(CN(CCCCc2ccccc2)C(=O)NC(C)(C)C(=O)O)cc(OC)c1C`: the pIC50 in data set [1] was 5.67.

As for `COc1cc([C@@H](C)N(CCCCCc2ccccc2)C(=O)NC2(C(=O)O)CC(F)(F)C2)cc(OC)c1C`, the pIC50 in data set [1] is 6.23.
